Assays:
Test in all cases: DHFR activity, NADPH consumption at […] nm
Type in all cases: biochemical
[1] = target: T1, S. suis dihydrofolate reductase (SsDHFR) (Streptococcus suis, UniProt A0A0H3N4C4)
T1 construct: gene dyr; full-length dhfr in pET15b (NdeI/BamHI, N-terminal vector tag kept); clarified lysate of E. coli BL21(DE3), not purified
T1 sequence (A0A0H3N4C4 1-170): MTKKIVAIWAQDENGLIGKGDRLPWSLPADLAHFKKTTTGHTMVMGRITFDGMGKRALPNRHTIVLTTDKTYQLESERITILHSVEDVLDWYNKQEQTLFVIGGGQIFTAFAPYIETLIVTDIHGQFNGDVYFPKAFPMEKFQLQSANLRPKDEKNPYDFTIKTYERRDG

[2] = target: T1, S. suis dihydrofolate reductase (SsDHFR); conditions: 0.1 mM dihydrofolate, 0.1 mM NADPH, 50 mM TES pH 7.0; lysate
[3] = target: T1, S. suis dihydrofolate reductase (SsDHFR); conditions: 1 µM inhibitor; 0.1 mM dihydrofolate, 0.1 mM NADPH, 50 mM TES pH 7.0; lysate of overexpressing E. coli BL21(DE3), host DHFR background present

SMILES | % activity at 1 μM [3] | further results
COc1ccc(OC)c(NCc2ccc3nc(N)nc(N)c3c2Cl)c1 [MMV675968] |  | remaining activity at 1 µM [1]: 2%
NC(=O)C1=CN([C@@H]2O[C@H](COP(=O)(O)OP(=O)(O)OC[C@H]3O[C@@H](n4cnc5c(N)ncnc54)[C@H](OP(=O)(O)O)[C@@H]3O)[C@@H](O)[C@H]2O)C=CC1 [NADPH] |  | DHFR activity, NADPH consumption at 340 nm [2]: DHFR uses NADPH as a cofactor for the conversion of dihydrofolate (DHF) to tetrahydrofolate (THF)
CC1(C)N=C(N)N=C(N)N1c1ccc(Cl)cc1 [cycloguanil] | Trimethoprim, pyrimethamine, and cycloguanil were moderately effective at inhibiting SsDHFR | 
CCc1nc(N)nc(N)c1-c1ccc(Cl)cc1 [pyrimethamine] | Trimethoprim, pyrimethamine, and cycloguanil were moderately effective at inhibiting SsDHFR | 
